Type in all cases: biochemical
Test [1] addresses CDK6/CCND1 (Homo sapiens, UniProt Q00534). The test is described as follows: CDK6 homogeneous time-resolved fluorescence (HTRF) kinase assay. As to conditions: CDK6/CCND. In short, it runs like this:
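Recombinant CDK6/CCND1 (1 nM final) was preincubated with compound for 20 min at 23 °C in HEPES buffer with MgCl2, EGTA, DTT and Tween 20. Kinase reaction then ran 60 min at 23 °C with 1 mM ATP and 50 nM ULight-4E-BP1 (Thr37/46) peptide, and was stopped with EDTA.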
In general terms: In TR-FRET formats the signal depends on donor and acceptor labels being close together.

Test [2] concerns the target CDK2/CCNE1 (Homo sapiens, UniProt P24941). Briefly: CDK2 homogeneous time-resolved fluorescence (HTRF) kinase assay. Particulars: CDK2/CCNE. In short, it runs like this:
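IC50 derived from 11-point, half-log dilutions (usually top 10 μM) of compound, 1% DMSO. Kinase (3 nM CDK2/CCNE1) was preincubated with compound 20 min, then phosphorylated 50 nM ULight-4E-BP1 peptide at 1 mM ATP for 60 min, 23 °C. Europium-antibody TR-FRET read after EDTA stop.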

Test [3] has as its target CDK4/CCND3 (Homo sapiens, UniProt P11802). Briefly: CDK4 homogeneous time-resolved fluorescence (HTRF) kinase assay. As to conditions: CDK4/CCND. Summed up:
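HTRF kinase assay, CDK4/CCND3 1.5 nM, ATP 1 mM, ULight-4E-BP1 peptide 50 nM, 23 °C, 60 min reaction after 20 min preincubation. Eu-anti-pThr37/46 antibody detection. 11-pt half-log curves from 10 μM → IC50.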

Test [4] concerns the target CDK1/CCNB1 (Homo sapiens, UniProt P06493). The test is described as follows: CDK1 homogeneous time-resolved fluorescence (HTRF) kinase assay. As to conditions: CDK1/CCNB. In short, it runs like this: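 Compounds, titrated 11 points in half-log steps typically from 10 μM, were incubated with enzyme for 20 min before ATP (1 mM) and ULight-labelled eIF4E-binding protein 1 peptide (50 nM) started a 60-min reaction at 23 °C. Phosphopeptide was detected by europium-antibody TR-FRET and IC50 values were derived.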

The mark [5] stands for this setting: >250 nM marked x, read-out: CDK6/CCND IC50 >250 nM.
Where [6] appears, read: 25-250 nM marked x, read-out: CDK2/CCNE IC50 25-250 nM.
Setting [7] is: >250 nM marked x, read-out: CDK4/CCND IC50 >250 nM.
The mark [8] stands for this setting: >250 nM marked x, read-out: CDK1/CCNB IC50 >250 nM.
The mark [9] stands for this setting: >250 nM marked x, read-out: CDK2/CCNE IC50 >250 nM.
Where [10] appears, read: <25 nM, read-out: CDK2/CCNE IC50 <25 nM.
Setting [11] is: 25-250 nM marked x, read-out: CDK6/CCND IC50 25-250 nM.
The mark [12] stands for this setting: 25-250 nM marked x, read-out: CDK4/CCND IC50 25-250 nM.

SMILES strings stand for the structures. Like-named read-outs stand apart in the source and are kept apart here.

Sequence of CDK6/CCND1 (Q00534 whole entry): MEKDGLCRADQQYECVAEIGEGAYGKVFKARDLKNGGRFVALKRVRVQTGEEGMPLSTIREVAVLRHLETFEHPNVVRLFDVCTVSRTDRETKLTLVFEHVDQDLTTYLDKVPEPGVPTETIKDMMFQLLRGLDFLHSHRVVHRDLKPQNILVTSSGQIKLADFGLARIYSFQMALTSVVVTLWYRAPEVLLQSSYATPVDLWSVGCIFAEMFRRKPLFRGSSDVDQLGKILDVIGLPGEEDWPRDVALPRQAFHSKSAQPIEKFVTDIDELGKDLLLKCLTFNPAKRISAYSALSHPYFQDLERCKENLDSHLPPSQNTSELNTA
Sequence of CDK6/CCND1 (P24385 whole entry partner): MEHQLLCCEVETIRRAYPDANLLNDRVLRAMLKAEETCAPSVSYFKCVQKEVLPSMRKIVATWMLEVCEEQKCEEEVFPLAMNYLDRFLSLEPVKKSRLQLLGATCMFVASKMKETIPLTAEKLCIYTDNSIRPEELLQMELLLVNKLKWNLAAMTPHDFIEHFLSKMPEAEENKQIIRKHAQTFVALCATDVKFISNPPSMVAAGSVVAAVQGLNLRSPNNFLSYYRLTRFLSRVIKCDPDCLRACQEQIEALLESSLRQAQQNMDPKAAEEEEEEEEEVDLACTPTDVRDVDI
Sequence of CDK4/CCND3 (P11802 whole entry): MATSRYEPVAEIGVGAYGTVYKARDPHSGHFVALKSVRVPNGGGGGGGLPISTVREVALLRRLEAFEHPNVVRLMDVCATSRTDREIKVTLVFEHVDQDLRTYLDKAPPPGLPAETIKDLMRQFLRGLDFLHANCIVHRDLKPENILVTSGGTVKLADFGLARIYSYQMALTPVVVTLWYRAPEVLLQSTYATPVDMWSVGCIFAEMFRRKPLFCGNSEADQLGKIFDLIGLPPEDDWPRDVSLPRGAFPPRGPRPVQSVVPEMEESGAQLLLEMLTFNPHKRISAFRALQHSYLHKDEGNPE
Sequence of CDK4/CCND3 (P30281 whole entry partner): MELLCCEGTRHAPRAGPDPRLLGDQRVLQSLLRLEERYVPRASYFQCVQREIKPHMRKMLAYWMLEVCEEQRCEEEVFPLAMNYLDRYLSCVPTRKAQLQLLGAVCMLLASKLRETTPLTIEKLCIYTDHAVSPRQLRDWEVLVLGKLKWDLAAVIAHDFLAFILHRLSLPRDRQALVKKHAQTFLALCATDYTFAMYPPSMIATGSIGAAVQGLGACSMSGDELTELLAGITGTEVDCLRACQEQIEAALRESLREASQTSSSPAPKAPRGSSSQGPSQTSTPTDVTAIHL
Sequence of CDK1/CCNB1 (P06493 whole entry): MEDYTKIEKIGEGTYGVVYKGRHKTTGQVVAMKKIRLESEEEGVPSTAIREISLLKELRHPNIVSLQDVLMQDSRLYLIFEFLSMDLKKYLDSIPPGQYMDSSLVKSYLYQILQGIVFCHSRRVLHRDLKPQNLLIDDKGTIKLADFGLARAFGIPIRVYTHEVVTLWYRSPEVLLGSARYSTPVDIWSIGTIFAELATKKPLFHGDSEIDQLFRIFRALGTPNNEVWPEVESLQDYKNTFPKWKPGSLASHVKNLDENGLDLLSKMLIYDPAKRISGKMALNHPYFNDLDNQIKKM
Sequence of CDK1/CCNB1 (P14635 whole entry partner): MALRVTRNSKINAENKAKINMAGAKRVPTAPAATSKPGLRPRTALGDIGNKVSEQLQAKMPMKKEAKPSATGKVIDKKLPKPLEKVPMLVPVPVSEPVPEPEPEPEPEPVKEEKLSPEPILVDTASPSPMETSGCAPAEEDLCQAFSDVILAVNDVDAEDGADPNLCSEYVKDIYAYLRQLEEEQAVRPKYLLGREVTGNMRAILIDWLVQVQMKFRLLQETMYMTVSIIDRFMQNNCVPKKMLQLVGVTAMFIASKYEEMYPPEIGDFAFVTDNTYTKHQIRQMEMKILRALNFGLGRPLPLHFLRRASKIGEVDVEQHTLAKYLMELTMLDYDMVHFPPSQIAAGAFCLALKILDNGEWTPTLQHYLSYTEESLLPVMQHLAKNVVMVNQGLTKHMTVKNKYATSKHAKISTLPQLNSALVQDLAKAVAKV

Regarding `COCCNC(=O)[C@H]1CC[C@H](c2nccc3cnc(Nc4ccc(S(C)(=O)=O)cc4)cc32)CC1` [Ex 199, (1r,4r)-N-(2-methoxyethyl)-4-(7-((4-(methylsulfonyl)phenyl)amino)-2,6-naphthyridin-1-yl)cyclohexane-1-carboxamide], the IC50 was greater than 0.25 µM in test [1] (setting [5]), 0.025 to 0.25 µM in test [2] (setting [6]), greater than 0.25 µM in test [3] (setting [7]) and greater than 0.25 µM in test [4] (setting [8]).
As to `CS(=O)(=O)c1ccc(Nc2cc3c(ccnc3[C@H]3CC[C@H](C(=O)NC4CCC4)CC3)cn2)cc1` [Ex 200, (1r,4r)-N-cyclobutyl-4-(7-((4-(methylsulfonyl)phenyl)amino)-2,6-naphthyridin-1-yl)cyclohexane-1-carboxamide], the IC50 in test [1] (setting [5]) was greater than 0.25 µM; in test [2] (setting [6]) it was 0.025 to 0.25 µM; in test [3] (setting [7]), greater than 0.25 µM; in test [4] (setting [8]), greater than 0.25 µM.
With `CS(=O)(=O)c1ccc(Nc2cc3c(ccnc3[C@H]3CC[C@H](C(=O)N4CCOCC4)CC3)cn2)cc1` [Ex 201, ((1r,4r)-4-(7-((4-(methylsulfonyl)phenyl)amino)-2,6-naphthyridin-1-yl)cyclohexyl)(morpholino)methanone], the IC50 in test [1] (setting [5]), in test [2] (setting [9]), in test [3] (setting [7]) and in test [4] (setting [8]) was greater than 0.25 µM throughout.
Regarding `CS(=O)(=O)c1ccc(Nc2cc3c(ccnc3[C@H]3CC[C@H](C(=O)Nc4ccccc4)CC3)cn2)cc1` [Ex 202, (1r,4r)-4-(7-((4-(methylsulfonyl)phenyl)amino)-2,6-naphthyridin-1-yl)-N-phenylcyclohexane-1-carboxamide], the IC50 in test [1] (setting [5]) is greater than 0.25 µM; in test [2] (setting [6]) it was 0.025 to 0.25 µM; in test [3] (setting [7]) it was greater than 0.25 µM; in test [4] (setting [8]), greater than 0.25 µM.
As to `Cc1c(-c2nccc3cnc(Nc4ccc(S(C)(=O)=O)cc4)cc23)ccc2nn(CCO)cc12` [Ex 206, 2-(4-methyl-5-(7-((4-(methylsulfonyl)phenyl)amino)-2,6-naphthyridin-1-yl)-2H-indazol-2-yl)ethan-1-ol], the IC50 in test [1] (setting [5]) was greater than 0.25 µM; in test [2] (setting [6]), 0.025 to 0.25 µM; in test [3] (setting [7]), greater than 0.25 µM; in test [4] (setting [8]) it was greater than 0.25 µM.
As to `Cc1c(-c2nccc3cnc(Nc4ccc(S(C)(=O)=O)cc4)cc23)ccc2c1cnn2CC1CNC1` [Ex 207, 5-(1-(azetidin-3-ylmethyl)-4-methyl-1H-indazol-5-yl)-N-(4-(methylsulfonyl)phenyl)-2,6-naphthyridin-3-amine], the IC50 in test [1] (<25 nM, read-out: CDK6/CCND IC50 <25 nM) is less than 0.025 µM; in test [2] (setting [10]), less than 0.025 µM; in test [3] (<25 nM, read-out: CDK4/CCND IC50 <25 nM), less than 0.025 µM; in test [4] (25-250 nM marked x, read-out: CDK1/CCNB IC50 25-250 nM), 0.025 to 0.25 µM.
`COC(=O)[C@H]1CC[C@H](C#Cc2nccc3cnc(Nc4ccc(S(C)(=O)=O)cc4)cc23)CC1` [Ex 213, methyl (1r,4r)-4-((7-((4-(methylsulfonyl)phenyl)amino)-2,6-naphthyridin-1-yl)ethynyl)cyclohexane-1-carboxylate]: the IC50 in test [1] (setting [11]) was 0.025 to 0.25 µM; in test [2] (setting [10]) it was less than 0.025 µM; in test [3] (setting [12]), 0.025 to 0.25 µM; in test [4] (setting [8]), greater than 0.25 µM.
Take `CS(=O)(=O)c1ccc(Nc2cc3c(C#CC4CC4)nccc3cn2)cc1` [Ex 214, 5-(cyclopropylethynyl)-N-(4-(methylsulfonyl)phenyl)-2,6-naphthyridin-3-amine]: the IC50 in test [1] (setting [11]) was 0.025 to 0.25 µM; in test [2] (setting [10]) it was less than 0.025 µM; in test [3] (setting [12]), 0.025 to 0.25 µM; in test [4] (setting [8]), greater than 0.25 µM.
`Cc1c(-c2nccc3cnc(Nc4ccc(S(C)(=O)=O)cc4)cc23)ccc2c1cnn2CCC1CNC1` [Ex 216, 5-(1-(2-(azetidin-3-yl)ethyl)-4-methyl-1H-indazol-5-yl)-N-(4-(methylsulfonyl)phenyl)-2,6-naphthyridin-3-amine]: the IC50 in test [1] (setting [5]) was greater than 0.25 µM; in test [2] (setting [6]), 0.025 to 0.25 µM; in test [3] (setting [7]), greater than 0.25 µM; in test [4] (setting [8]), greater than 0.25 µM.
As to `C=CS(=O)(=O)c1ccc(Nc2cc3c(-c4cccc(CO)c4)nccc3cn2)cc1` [Ex 217, (3-(7-((4-(vinylsulfonyl)phenyl)amino)-2,6-naphthyridin-1-yl)phenyl)methanol], the IC50 in test [1] (setting [5]) is greater than 0.25 µM; in test [2] (setting [6]), 0.025 to 0.25 µM; in test [3] (setting [7]) it was greater than 0.25 µM; in test [4] (setting [8]), greater than 0.25 µM.
`COc1c(-c2nccc3cnc(Nc4ccc(S(C)(=O)=O)cc4)cc23)ccc2[nH]ncc12` [Ex 220, 5-(4-methoxy-1H-indazol-5-yl)-N-(4-(methylsulfonyl)phenyl)-2,6-naphthyridin-3-amine]: the IC50 is greater than 0.25 µM in test [1] (setting [5]), 0.025 to 0.25 µM in test [2] (setting [6]), greater than 0.25 µM in test [3] (setting [7]) and greater than 0.25 µM in test [4] (setting [8]).
For the compound `Cc1cc2[nH]ncc2cc1-c1nccc2cnc(Nc3ccc(S(=O)(=O)CCO)cc3)cc12` [Ex 222, 2-((4-((5-(6-methyl-1H-indazol-5-yl)-2,6-naphthyridin-3-yl)amino)phenyl)sulfonyl)ethan-1-ol], the IC50 in test [1] (setting [5]) is greater than 0.25 µM; in test [2] (setting [6]) it was 0.025 to 0.25 µM; in test [3] (setting [7]), greater than 0.25 µM; in test [4] (setting [8]) it was greater than 0.25 µM.
Regarding `CS(=O)(=O)c1ccc(Nc2cc3c(ccnc3[C@H]3CC[C@H](C(N)=O)CC3)cn2)cc1` [Ex 223, (1r,4r)-4-(7-((4-(methylsulfonyl)phenyl)amino)-2,6-naphthyridin-1-yl)cyclohexane-1-carboxamide], the IC50 in test [1] (setting [5]) was greater than 0.25 µM; in test [2] (setting [6]), 0.025 to 0.25 µM; in test [3] (setting [12]) it was 0.025 to 0.25 µM; in test [4] (setting [8]), greater than 0.25 µM.
For `C=CCNC(=O)[C@H]1CC[C@H](c2nccc3cnc(Nc4ccc(S(C)(=O)=O)cc4)cc32)CC1` [Ex 224, (1r,4r)-N-allyl-4-(7-((4-(methylsulfonyl)phenyl)amino)-2,6-naphthyridin-1-yl)cyclohexane-1-carboxamide], the IC50 in test [1] (setting [5]) was greater than 0.25 µM; in test [2] (setting [6]), 0.025 to 0.25 µM; in test [3] (setting [7]), greater than 0.25 µM; in test [4] (setting [8]) it was greater than 0.25 µM.
For the compound `CN(C)C(=O)[C@H]1CC[C@H](c2nccc3cnc(Nc4ccc(S(C)(=O)=O)cc4)cc32)CC1` [Ex 225, (1r,4r)-N,N-dimethyl-4-(7-((4-(methylsulfonyl)phenyl)amino)-2,6-naphthyridin-1-yl)cyclohexane-1-carboxamide], the IC50 in test [1] (setting [5]), in test [2] (setting [9]), in test [3] (setting [7]) and in test [4] (setting [8]) was greater than 0.25 µM throughout.
As to `CS(=O)(=O)c1ccc(Nc2cc3c(ccnc3[C@H]3CC[C@H](C(=O)NC4CCOCC4)CC3)cn2)cc1` [Ex 226, (1r,4r)-4-(7-((4-(methylsulfonyl)phenyl)amino)-2,6-naphthyridin-1-yl)-N-(tetrahydro-2H-pyran-4-yl)cyclohexane-1-carboxamide], the IC50 in test [1] (setting [5]), in test [2] (setting [9]), in test [3] (setting [7]) and in test [4] (setting [8]) was greater than 0.25 µM in each case.
`CN1CCN(C(=O)[C@H]2CC[C@H](c3nccc4cnc(Nc5ccc(S(C)(=O)=O)cc5)cc43)CC2)CC1` [Ex 227, (4-methylpiperazin-1-yl)((1r,4r)-4-(7-((4-(methylsulfonyl)phenyl)amino)-2,6-naphthyridin-1-yl)cyclohexyl)methanone]: the IC50 in test [1] (setting [5]), in test [2] (setting [9]), in test [3] (setting [7]) and in test [4] (setting [8]) was greater than 0.25 µM in each case.
Regarding `CS(=O)(=O)c1ccc(Nc2cc3c(ccnc3[C@H]3CC[C@H](C(=O)N4CCSCC4)CC3)cn2)cc1` [Ex 228, ((1r,4r)-4-(7-((4-(methylsulfonyl)phenyl)amino)-2,6-naphthyridin-1-yl)cyclohexyl)(thiomorpholino)methanone], the IC50 in test [1] (setting [5]), in test [2] (setting [9]), in test [3] (setting [7]) and in test [4] (setting [8]) was greater than 0.25 µM in each case.
Turning to `C=CS(=O)(=O)c1ccc(Nc2cc3c(-c4ccc5cn[nH]c5c4)nccc3cn2)cc1` [Ex 241, 5-(1H-indazol-6-yl)-N-(4-(vinylsulfonyl)phenyl)-2,6-naphthyridin-3-amine], the IC50 is 0.025 to 0.25 µM in test [1] (setting [11]), 0.025 to 0.25 µM in test [2] (setting [6]), greater than 0.25 µM in test [3] (setting [7]) and greater than 0.25 µM in test [4] (setting [8]).

(Values after US20260325533A1, “CDK INHIBITOR COMPOUNDS” (ALEKSIA THERAPEUTICS, INC., priority 2023, published 2026).)
